According to patent US20260355199A1, “COMPOSITIONS AND METHODS FOR TREATING OR PREVENTING NONALCOHOLIC STEATOHEPATITIS (NASH), ANOREXIA, DEPRESSION, ENDOMETRIOSIS, AND OTHER DISEASES OR DISORDERS” (priority 2022, published 2026):
“Also recorded” adds a separate entry of the source.

Legend:
hM4Di = experiment: Chemogenetic inhibition of AgRP neurons with C21; assay type: in vivo, mouse; conditions: C21 0.5 mg/kg by osmotic pump, TET3 knockdown mice
From the text: To determine the relevance of activated AgRP neurons from TET3 knockdown, the chemogenetic tool of designer receptors exclusively activated by designer drugs (DREADDs) was used. AAV-sgTet3 was co-injected with an AAV containing a Cre-dependent hM4Di-mCherry transgene (AAV-hM4Di) (Krashes, M. J. et al., 2011, Journal of Clinical Investigations, 121:1424-1428) bilaterally into the ARC of Cas9+ mice, followed by implantation of an osmotic pump to infuse DREADD agonist 21 (C21) (Thompson, K. J. et al., 2018, ACS Pharmacology & Translational Science, 1:61-72) or saline (FIG. 9K). AgRP neuron-specific expression of hM4Di was confirmed by immunofluorescence (FIG. 11).
Three days after bilateral ARC co-injection with AAV-sgTet3 and AAV-h4MDi, a mini-osmotic pump (model 1007D, Alzet) was implanted subcutaneously. The osmotic pump was filled with either sterile saline solution or DREADD agonist compound 21 (C21) dihydrochloride (0.5 mg/kg, HB6124-25 mg, Hello Bio). Food intake measurement and ITT were performed at day 5 and day 9 post-injection, respectively. For food intake assays, food pellets were weighed at 10:00 each day for 3 continuous days and an average of three-day food intake was calculated.

estrogen receptor = conditions: cited from earlier work
TET3 and CD163 [1] = experiment: TET3 expression and TET3/CD163 double-positive cells in human MDMs; assay type: cell-based; conditions: for TET3 expression: TGF-β1 10 ng/ml or MCP1 200 ng/ml; for number of TET3/CD163 double-positive cells: TGF-β1 10 ng/ml, 48 h
Protocol: To prepare CM-HSC and CM-Endo, LX-2 and human endometriosis cells were seeded in 24-well plates (2.5×10^5 cells/well) with their respective growth media and allowed to grow to ~50% confluency. Cells were then washed with PBS and incubated with fresh growth media (500 μl/well) for an additional 24 h. Cell supernatant (CM-HSC/CM-Endo) was collected and immediately used to treat MDMs after 1:1 dilution with their respective growth media. In the control group, only respective growth media were used.
After wash in cold PBS, adherent cells were fixed with 4% paraformaldehyde in PBS for 15 min and permeabilized with 0.4% TritonX-100 for 15 min. Cells were blocked in 5% donkey serum/PBS-T at RT for 30 min and quickly washed once with PBS-T before antibody incubation. Primary antibodies were diluted in 2% donkey serum/PBS-T. For CD163/TET3 double staining, cells were incubated with anti-TET3 (GeneTex, GTX121453, diluted at 1:400 for MDMs; Millipore Sigma, ABE290, diluted at 1:500 for mouse peritoneal macrophages) and anti-CD163 (Abcam, ab156769, diluted at 1:400 for MDMs; Santa Cruz Biotechnology, sc-58965, diluted at 1:200 for peritoneal macrophages) overnight at 4 °C. The next day, cells were washed 3 times with PBS-T and incubated in 0.4% Triton X-100/PBS with donkey anti-Rabbit IgG Fluor 594 (Invitrogen, A-21207, diluted at 1:500) and goat anti-Mouse lgG Fluor 488 (Invitrogen, A-11029, diluted at 1:500) for 1 h at RT. Cells were covered with antifade mounting medium with DAPI (Vector laboratories, H-2000), scoped using a Keyence BZ-X700 fluorescence microscope.
Total RNAs were extracted from cells using PureLink RNA Mini Kit. 0.5-1 μg total RNA was reverse transcribed to cDNA in a reaction volume of 20 μL using PrimeScript RT Reagent Kit. Real-time quantitative PCR was performed in a 15 μL reaction volume containing 0.5-1 μL of cDNA using SsoAdvanced Universal SYBR Green Supermix in a Bio-Rad iCycler. Gene expression levels were normalized against RPLP0.

TET3 and CD163 [2] = experiment: TET3 expression in mouse peritoneal macrophages; assay type: cell-based; conditions: wild-type mouse peritoneal macrophages
Protocol: Peritoneal macrophages were collected from the peritoneal cavity of WT or Mye-Tet3 ko mice by injecting 10 mL of PBS followed by gentle abdominal massaging for 5 min. Cells were pelleted by centrifugation at 1500×g at 4 °C for 8 min. To remove red blood cells, cells were resuspended in […] (Biolegend, 420302, diluted to 1×) and allowed to stand for 5 min, followed by addition of PBS to stop the reaction and twice wash with PBS by centrifugation. Macrophages were enriched by plating cells in RPMI 1640 supplemented with 10% FBS and 1% Anti-Anti for 2 h at 37 °C in a 5% humidified CO2 tissue culture incubator. Non-adherent cells were then removed with three PBS washes.
After wash in cold PBS, adherent cells were fixed with 4% paraformaldehyde in PBS for 15 min and permeabilized with 0.4% TritonX-100 for 15 min. Cells were blocked in 5% donkey serum/PBS-T at RT for 30 min and quickly washed once with PBS-T before antibody incubation. […] Cells were covered with antifade mounting medium with DAPI (Vector laboratories, H-2000), scoped using a Keyence BZ-X700 fluorescence microscope.

IL-1β = conditions: phase III clinical trial; cited from earlier work
IL-6 receptor = conditions: rats; cited from earlier work

Molecule: Cl.Cl.c1ccc2c(c1)N=C(N1CCNCC1)c1ccccc1N2 [C21]
- hyperphagia (hM4Di): suppressed hyperphagia
- systemic insulin resistance (hM4Di): reversed systemic insulin resistance

Molecule: CCCCN(C)C(=O)CCCCCCCCCC[C@@H]1Cc2cc(O)ccc2[C@H]2CC[C@]3(C)[C@@H](O)CC[C@H]3[C@H]12 [ICI 164,384]
- estrogen receptor degradation (estrogen receptor): induces its degradation without affecting its mRNA expression

Molecule: MCP1: MCP1, also known as CCL2
- TET3 expression (TET3 and CD163 [1]): resulted in similar effects
- TET3 expression and TET3/CD163 double-positive cells (TET3 and CD163 [2]): increase TET3 expression and TET3/CD163 double-positive cells

Molecule: TGF-β1: purified TGF-β1 (PeproTech, 100-21)
- TET3 expression (TET3 and CD163 [1]): increased TET3 expression; also recorded: increased TET3 mRNA
- TET3 expression (TET3 and CD163 [1]; listed as TGF-b1): increased TET3 expression both at mRNA and protein levels
- number of TET3/CD163 double-positive cells (TET3 and CD163 [1]): increased TET3 expression and the number of TET3/CD163 double-positive cells; also recorded: increase in the number of TET3/CD163 double-positive cells
- number of TET3/CD163 double-positive cells (TET3 and CD163 [1]; listed as TGF-b1): increase in the number of TET3/CD163 double-positive cells
- TET3 expression and TET3/CD163 double-positive cells (TET3 and CD163 [2]): increase TET3 expression and TET3/CD163 double-positive cells

Molecule: canakinumab: a human monoclonal antibody specific for IL-1β
- incident NSCLC and lung cancer mortality (IL-1β): substantially reduced incident NSCLC and lung cancer mortality in a dose-dependent manner

Molecule: tocilizumab: an anti-IL-6 receptor monoclonal antibody
- endometriosis burden (IL-6 receptor): significantly reduced endometriosis burden
